Data as given in publication PMC3791449, “Mechanism of amyloid β−protein dimerization determined using single−molecule AFM force spectroscopy” (Scientific Reports, 2013).
“Also recorded” adds a separate entry of the source.

Tests used:
misfolded Aβ dimers [1] = assay: Contour length analysis of interacting segments within Aβ dimers; type: binding, human; conditions: contour length profiles, Fig. 5
Source text: We used the contour length measurements to identify segments of the peptides involved in dimer formation. The measured contour length is comprised of the length of the flexible tethers used for peptide immobilization and the length of the segment of the peptide from the anchoring point to the rupture position. The latter, according to the schematic in Fig. 1, was obtained by subtracting the lengths of all linkers from the measured contour lengths.
Probing interactions of Aβ peptides within a dimer by SMFS provides a pattern of peptide interactions within the dimers. According to the immobilization procedure, the peptide is covalently bound at its N−terminal cysteine. The experimentally measured contour length consists of two major components, the lengths of the flexible tethers used for peptide immobilization and the length of the peptide segment between the N−terminus and the segment of the peptide involved in interpeptide interactions. Therefore, the position of the peak on the force−distance curve is defined by the peptide length between the N−terminus and the interacting segment. […] The closer the interacting segment is to the N−terminus, the shorter the contour length will be when measured by AFM. […] The contour length of PEG 3400 was estimated to be 22.0 ± 0.9 nm[28]. Lengths of both aminopropyl silatrane (APS) and MAS were ~ 2.5 nm[13]. Therefore, the total length of all linkers was 24.5 ± 0.9 nm. In addition, the distance between N−termini of two peptides was estimated to be 1.0 nm.
All cysteinyl−Aβ peptides were synthesized using 9−fluorenylmethoxycarbonyl (FMOC) chemistry and purified by reverse phase high performance liquid chromatography (RP−HPLC). The identity and purity (usually > 97%) of the peptides were confirmed by amino acid analysis followed by mass spectrometry and RP−HPLC. Functionalization of AFM tips and mica substrates were prepared according to previously published procedures. Briefly, 20 nM Aβ monomers were immobilized on mica functionalized with aminopropyl silatrane (APS) via PEG 3400 tethers and on AFM tips through maleimide silatrane (MAS). For DFS study, the tip retraction speeds ranged from 100 nm/s to 4000 nm/s. The dwell time was set at 0.3 s when retraction speed reached 1000 nm/s and above. Force curves with rupture event were subject to WLC analysis, as shown below. [drawing 1] Rupture force distributions were fitted with a probability density function: [drawing 2] Dynamic force spectra were fitted with Bell−Evans model[21]: [drawing 3] […] Positions of interacting segments of Aβ monomers within dimers were estimated by subtracting from the measured contour lengths the lengths of all linkers and the distance between N−termini of monomers (see Fig. 1a). […]

misfolded Aβ dimers [2] = assay: Dynamic force spectroscopy (DFS) of misfolded Aβ dimers; type: binding, human; conditions: for koff (dissociation rate without applied force) / xβ (potential barrier location): Bell-Evans fit; for koff (dissociation rate without applied force): extrapolated to zero force; for barrier height (ΔG) of dimer dissociation: from mean koff of independent experiments, equation (4); for dimer lifetime (1/koff): zero applied force
Experimental: The cysteinyl−peptides were covalently immobilized on the tip and the surface via flexible tethers terminated with maleimide groups. […] Peptide aggregation was minimized by using a very low peptide concentration (20 nM) during the coupling reaction with the functionalized mica surface and the tips. Probing was performed by multiple approach−retraction cycles over various spots of the mica surface.
In the DFS approach, multiple force measurements were performed at different pulling rates and the data were grouped into several clusters according to the selected loading rates. […] After extrapolating the data to the zero pulling rate, the intercept and the slope of the linear plots (DFS spectrum) produced characteristics of the complexes, including their stability (off−rate constant koff) and the energy barrier position (xβ)[20][21].
The mean values were calculated from this dataset (Supplementary Table S1) and equation (4) (see Methods) was used to extract the barrier height (ΔG), along with xβ values, to generate the energy profile for the Aβ40 dissociation process.
All cysteinyl−Aβ peptides were synthesized using 9−fluorenylmethoxycarbonyl (FMOC) chemistry and purified by reverse phase high performance liquid chromatography (RP−HPLC). […] Functionalization of AFM tips and mica substrates were prepared according to previously published procedures. Briefly, 20 nM Aβ monomers were immobilized on mica functionalized with aminopropyl silatrane (APS) via PEG 3400 tethers and on AFM tips through maleimide silatrane (MAS). For DFS study, the tip retraction speeds ranged from 100 nm/s to 4000 nm/s. The dwell time was set at 0.3 s when retraction speed reached 1000 nm/s and above. Force curves with rupture event were subject to WLC analysis, as shown below. [drawing 1] Rupture force distributions were fitted with a probability density function: [drawing 2] Dynamic force spectra were fitted with Bell−Evans model[21]: [drawing 3] The energy profiles were reconstructed according to previous papers, using the equation below. [drawing 4] Positions of interacting segments of Aβ monomers within dimers were estimated by subtracting from the measured contour lengths the lengths of all linkers and the distance between N−termini of monomers (see Fig. 1a). The contour length of PEG was estimated with the following equation[28]: [drawing 5] Where Lc(F) is the contour length, Ns is the average number of monomers, Lplanar is the length of monomers with planar conformation, Lhelical is the length of monomers with helical conformation, ΔG(F) is the free energy difference at zero appling force. The Ns is 77 ± 10 for 3400 Da PEG. The Lplanar and Lhelical are 3.58 Å and 2.8 Å, respectively. The ΔG(F) is fixed at 3 kBT. […] All error bars represent SEM. Detailed methods can be found in Supplementary Information.
A 50 mM 1−(3−aminopropyl) silatrane (APS) stock solution was prepared by dissolving the APS powder in deionized (DI) water. The 1.67 mM stock solution of maleimide−polyethylene glycol−succinimidyl valerate (MAL−PEG−SVA; 3.4 kDa Laysan Bio Inc, Arab, AL) was prepared in DMSO (Sigma−Aldrich Inc.) and stored at −20°C. The 10 mM Tris (2−carboxyethyl) phosphine (TCEP) hydrochloride (Hampton Research Inc.) and the 2.94 mM solution of maleimide silatrane (MAS) were prepared in DI water and stored at −20°C. A 10 mM stock solution of β−mercaptoethanol was prepared in 10 mM sodium phosphate, pH 7.4 (“phosphate buffer”) and kept at 4°C. Unless otherwise specified, other reagents used in the experiments were of analytical grade from Sigma−Aldrich.

[3] = experiment #1, retraction 100-4000 nm/s
[4] = experiment #1, retraction 100-4000 nm/s, approach 400 nm/s, trigger force 100 pN, dwell 0.3 s at ≥1000 nm/s, N-terminal Cys tethered, 20 nM coupling
[5] = experiment #2, retraction 100-4000 nm/s
[6] = experiment #3, retraction 100-4000 nm/s
[7] = mean ± SEM of three experiments
[8] = mean ± SEM of three experiments, retraction 100-4000 nm/s
[9] = mean ± SEM of three experiments, DFS

Substance	predominant interpeptide interaction pattern in dimer (misfolded Aβ dimers [1])	lifetime increase of dimer vs WT counterpart (misfolded Aβ dimers [2]; DFS, [VPV] mutant vs wild type)	koff (dissociation rate without applied force) (misfolded Aβ dimers [2]; [3])	xβ (potential barrier location) (misfolded Aβ dimers [2]; [4])	koff (dissociation rate without applied force) (misfolded Aβ dimers [2]; experiment #2)	xβ (potential barrier location) (misfolded Aβ dimers [2]; [5])	koff (dissociation rate without applied force) (misfolded Aβ dimers [2]; experiment #3)	xβ (potential barrier location) (misfolded Aβ dimers [2]; [6])	barrier height (ΔG) of dimer dissociation (misfolded Aβ dimers [2])	koff (dissociation rate without applied force) (misfolded Aβ dimers [2]; [7])	xβ (potential barrier location) (misfolded Aβ dimers [2]; [8])	dimer lifetime (1/koff) (misfolded Aβ dimers [2]; [9])
[VPV]Aβ42: Aβ42 with VPV substitutions (Gly33Val−Val36Pro−Gly38Val); cysteinyl−peptide	interactions within the central segments	more than three times higher	1.1 s⁻¹	0.451 nm	2.1 s⁻¹	0.337 nm	1.5 s⁻¹	0.387 nm	29.0 kBT	1.6 ± 0.3 s⁻¹	0.392 ± 0.034 nm	0.63 ± 0.12 s
Aβ40: alloform of human amyloid β−protein; cysteinyl−Aβ peptide, Cys residue placed at the N−terminus	primary interactions that occur via the N−termini; also recorded: predominate contribution of N−terminal interactions		9.4 s⁻¹	0.203 nm	4.7 s⁻¹	0.257 nm	12.9 s⁻¹	0.206 nm	27.3 kBT	9.0 ± 2.4 s⁻¹	0.222 ± 0.018 nm	0.11 s
[VPV]Aβ40: Aβ40 mutant with VPV substitutions (Gly33Val−Val36Pro−Gly38Val); cysteinyl−peptide	increased interactions between the central and C−terminal segments		2.2 s⁻¹	0.361 nm	1.7 s⁻¹	0.293 nm	1.9 s⁻¹	0.262 nm	28.8 kBT	1.9 ± 0.1 s⁻¹	0.305 ± 0.029 nm	0.53 s
Aβ42: alloform of human amyloid β−protein with two additional C−terminal residues; cysteinyl−peptide	interactions within the C−terminus			0.299 nm		0.260 nm		0.262 nm			0.274 ± 0.013 nm	
